Measured values published in patent publication US10906904B2, “ADO-resistant cysteamine analogs and uses thereof” (HORIZON ORPHAN LLC, priority 2015, dated 2021).
Like-named read-outs stand apart in the source and are kept apart here.

Assays:
human recombinant ADO = molecular target: T1, human recombinant ADO (Homo sapiens, UniProt Q96SZ5); type: in vitro ADME
T1 sequence (Q96SZ5 1-270): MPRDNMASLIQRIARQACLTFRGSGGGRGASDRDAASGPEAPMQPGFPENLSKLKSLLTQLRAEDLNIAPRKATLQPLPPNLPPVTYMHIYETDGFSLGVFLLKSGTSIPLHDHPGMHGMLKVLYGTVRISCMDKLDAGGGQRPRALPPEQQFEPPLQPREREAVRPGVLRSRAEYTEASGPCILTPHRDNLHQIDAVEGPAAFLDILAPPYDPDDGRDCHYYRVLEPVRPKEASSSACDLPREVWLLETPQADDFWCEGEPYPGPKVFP
Outline: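 Test compound (15 mM) incubated with 60 μg/ml human recombinant ADO and 20 nM O2-sensitive fluorescent probe at 37 °C in sealed chamber. Initial rate of fluorescence increase (ex 380/em 650 nm) gave oxygen consumption, expressed relative to 15 mM cysteamine.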

[1] = Rodent pharmacokinetic assay (rat); type: in vivo; details: plasma, 2 and 10 mg free base equivalents per kg, intravenous and oral gavage
Experimental: (§1) Pharmacokinetic parameters of a test compound in a rodent species (mouse and/or rat) were determined by administering a test compound at 2 and 10 mg free base equivalents per kg via the intravenous and oral gavage route to groups of three animals per route.
(§2) Blood samples were taken at various times after administration, plasma prepared, and submitted to analysis for parent drug using a qualified LC-MS-MS assay. Pharmacokinetics parameters derived from the plasma analytical data were determined using non-compartmental analysis.

[2] = Rodent pharmacokinetic assay (mouse); details: plasma, 10 mg
Experimental: as §1, §2

in vitro = details: rat
Experimental: Rat hepatocytes were used to model in vivo hepatic clearance of the compounds by the ADO enzyme. Briefly, a Hepatocyte Stability Assay was carried out using cryopreserved rat hepatocytes.

[3] = tested on: cystinotic human fibroblasts; experiment: Cystine depletion assay; type: cell-based; details: for cystine depletion levels (in words): compared to cysteamine; for Cystine depletion: compound at 50 μM or 100 μM, Tables 1-3
Outline: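 Cystinotic human fibroblasts treated with compound at 50 μM or 100 μM for 60 min at 37° C. After homogenisation and acid protein precipitation, cystine measured by HILIC LC-MS/MS and normalised to protein. Depletion expressed as percent of that achieved by cysteamine at similar concentration.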

Cystine reactivity assay = experiment: Cystine reactivity assay; design: Cystine Reactivity: unit not given here; details: for Cystine Reactivity: Tables 1-3; for reactivity with cystine compared to cysteamine (in words): text summary of Tables 1-3
Outline: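 3 mM test compound incubated with 100 nM BODIPY FL L-cystine in phosphate buffer, pH 7.4, 30 °C; S–S cleavage relieves quenching, raising fluorescence. Rate taken as slope (RFU/min) of linear fit over time, expressed as percentage of 3 mM cysteamine.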

in vivo = details: mouse, 10 mg
Experimental: as §1, §2

| SMILES | metabolism by ADO compared to cysteamine (in words) (human recombinant ADO) | ADO metabolism (human recombinant ADO; human, 15 mM) [%] | bioavailability ([1]; read-out: Rat PK Bioavailability) [%] | half-life ([1]; read-out: Rat PK-Half life (converted)) [h] | half-life [2] [h] | bioavailability ([2]; oral) [%] | microsomal CLint at 3 μM (in vitro; cryopreserved rat hepatocytes) [µL/min/mg] | cystine depletion levels (in words) [3] | Cystine depletion [3] [%] | Cystine Reactivity (Cystine reactivity assay) | reactivity with cystine compared to cysteamine (in words) (Cystine reactivity assay) | ADO metabolism (human recombinant ADO; relative to 15 mM cysteamine, Tables 1-3) [%] | metabolism by ADO compared to cysteamine (in words) (human recombinant ADO; text summary of Tables 1-3) | bioavailability (in vivo) [%] | half-life (in vivo) [h] | microsomal CLint (in vitro; hepatocytes) [µL/min/mg] |
| --- | --- | --- | --- | --- | --- | --- | --- | --- | --- | --- | --- | --- | --- | --- | --- | --- |
| CN1CCC(S)CC1 [Compound 2d] | significantly reduced metabolism by ADO compared to cysteamine | 1 | 34 | 2.3 | 3.9 | 38 | 12600 | slightly decreased | 79 | 7332 | increased reactivity with cystine compared to cysteamine |  |  |  |  |  |
| SCCN1CCCC1 [Compound 2b] |  |  |  |  |  |  |  | similar | 99 | 12392 | increased reactivity with cystine compared to cysteamine | 4 | significantly reduced metabolism by ADO compared to cysteamine | 33 | 0.4 | 15700 |
